Measured values reported in patent EP4610269A1, “UROKINASE PLASMINOGEN ACTIVATOR SURFACE RECEPTOR (UPAR) LIGANDS FOR DIAGNOSTIC OR THERAPEUTIC USE” (3B Pharmaceuticals GmbH, priority 2024, dated 2025).
Where a SMILES comes first, the peptide text is derived from it. Bridges are numbered along the chain shown (N, C = ends). [ ]: non-standard residue; d: D form. The star is where a group is joined. Acetyl(4-DOTA-piperazinyl) = O=C(O)CN1CCN(CC(=O)O)CCN(CC(=O)N2CCN(CC(=O)*)CC2)CCN(CC(=O)O)CC1; DOTA = O=C(O)CN1CCN(CC(=O)O)CCN(CC(=O)*)CCN(CC(=O)O)CC1; Pro(trans-4-F) = O=C(O)[C@@H]1C[C@@H](F)CN1; Phe(4-Cl) = N[C@@H](Cc1ccc(Cl)cc1)C(=O)O; Pro(cis-4-F) = O=C(O)[C@@H]1C[C@H](F)CN1; Dopa = N[C@@H](Cc1ccc(O)c(O)c1)C(=O)O; Hyp = O=C(O)[C@@H]1C[C@@H](O)CN1; 3Pal = N[C@@H](Cc1cccnc1)C(=O)O; Pentanoyl(4-Me) = CC(C)CCC(=O)*; Cit = NC(=O)NCCC[C@H](N)C(=O)O; Butoxycarbonyl = CCCCOC(=O)*; Phg = N[C@H](C(=O)O)c1ccccc1; Tle = CC(C)(C)[C@H](N)C(=O)O; Nva = CCC[C@H](N)C(=O)O; Hexanoyl = CCCCCC(=O)*; Pentanoyl = CCCCC(=O)*

Assays:
[1] = target: T1, human uPAR (uPAR-Fc) (Homo sapiens, UniProt Q03405); test: Surface plasmon resonance (SPR) assay, single cycle kinetics; assay type: binding; conditions: pKD category for uPAR SPR activity assay; uPAR-Fc on Protein A-Chip, 25°C; read-out: pKD CAT (converted)
T1 construct: comprising amino acids Leu23-Arg303 according to UniProt entry Q03405.1; purchased R&D Systems 10378-UK-100
Outline: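 uPAR-Fc (Leu23-Arg303 extracellular domains, human IgG1 Fc) captured on Protein A chip to ~2000 RU; single-cycle kinetics at 25°C in HEPES running buffer pH 7.4 with 0.1% DMSO. KD from double-referenced sensorgrams fitted to 1:1 Langmuir model, reported as pKD.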

[2] = target: T2, uPAR-expressing HEC-265 human endometrial adenocarcinoma cells (Homo sapiens, UniProt Q03405); test: Competitive FACS binding assay; conditions: pIC50 category of FACS binding
T2 construct: Cell surface uPAR-expressing HEC-265 human endometrial adenocarcinoma cells; host or cells: HEC-265
Outline: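 Competitive displacement of a 10 nM biotinylated peptide from HEC-265 cells (1 h, 4 °C, PBS/1% BSA), detected via APC-streptavidin by flow cytometry. pIC50 from four-parameter logistic fit of median fluorescence versus concentration.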

T2 sequence (Q03405 23-335): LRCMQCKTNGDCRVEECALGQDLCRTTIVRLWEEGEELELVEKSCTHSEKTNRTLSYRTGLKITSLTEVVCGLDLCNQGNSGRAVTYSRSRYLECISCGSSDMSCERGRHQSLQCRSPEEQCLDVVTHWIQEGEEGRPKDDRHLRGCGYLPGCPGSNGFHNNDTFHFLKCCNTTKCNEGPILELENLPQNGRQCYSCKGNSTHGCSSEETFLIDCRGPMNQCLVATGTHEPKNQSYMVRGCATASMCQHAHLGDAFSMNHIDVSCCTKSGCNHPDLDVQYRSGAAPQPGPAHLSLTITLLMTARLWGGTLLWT
T1 sequence (Q03405 23-303): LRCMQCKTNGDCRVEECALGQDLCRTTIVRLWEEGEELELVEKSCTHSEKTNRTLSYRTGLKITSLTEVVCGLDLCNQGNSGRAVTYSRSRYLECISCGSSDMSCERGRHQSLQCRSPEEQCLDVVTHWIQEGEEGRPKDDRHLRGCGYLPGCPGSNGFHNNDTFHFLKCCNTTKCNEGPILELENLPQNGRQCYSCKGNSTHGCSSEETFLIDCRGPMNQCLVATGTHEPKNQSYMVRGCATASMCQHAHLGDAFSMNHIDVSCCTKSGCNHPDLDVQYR

| SMILES | Kd [1] [nM] | IC50 [2] [nM] |
| --- | --- | --- |
| CCCCOC(=O)N[C@H]1CSSC[C@@H](C(N)=O)NC(=O)[C@H](CCC)NC(=O)[C@H]([C@@H](C)CC)NC(=O)[C@@H]2C[C@@H](O)CN2C(=O)[C@@H]2C[C@H](F)CN2C(=O)[C@H](Cc2ccccc2)NC(=O)[C@H](Cc2ccc(O)c(O)c2)NC(=O)[C@H](CCCCNC(=O)CN2CCN(C(=O)CN3CCN(CC(=O)O)CCN(CC(=O)O)CCN(CC(=O)O)CC3)CC2)NC(=O)[C@H]([C@@H](C)O)NC1=O [UPAR-199, Butoc-[Cys-Thr-Lys(DOTA-PPAc)-Dopa-Phe-4Cfp-Hyp-Ile-Nva-Cys]-NH2] (Butoxycarbonyl-CTK(Acetyl(4-DOTA-piperazinyl))[Dopa]F[Pro(cis-4-F)][Hyp]I[Nva]C-NH2; disulfide 1-10) | < 1.58 | ≤ 10 |
| CC(C)CCC(=O)N[C@H]1CSSC[C@@H](C(N)=O)NC(=O)[C@H](CC(C)C)NC(=O)[C@H](C(C)(C)C)NC(=O)[C@@H](C)NC(=O)[C@@H]2CCCN2C(=O)[C@H](Cc2ccccc2)NC(=O)[C@H](Cc2ccc(O)cc2)NC(=O)[C@H](CCC(N)=O)NC(=O)[C@H](CCCNC(N)=O)NC1=O [UPAR-201, iHex-[Cys-Cit-Gln-Tyr-Phe-Pro-ala-Tle-Leu-Cys]-NH2] ({Pentanoyl(4-Me)}-C[Cit]QYFP[dA][Tle]LC-NH2; disulfide 1-10) | 10 to 100 | 39.8 to 100 |
| CCCCCC(=O)N[C@@H](CO)C(=O)N[C@@H](CC(C)C)C(=O)N[C@H]1CSSC[C@@H](C(N)=O)NC(=O)[C@H](CC(C)C)NC(=O)[C@H]([C@@H](C)CC)NC(=O)[C@H](C)NC(=O)[C@@H]2CCCN2C(=O)[C@H](Cc2ccccc2)NC(=O)[C@H](Cc2ccccc2)NC(=O)[C@H](CCC(N)=O)NC(=O)[C@H](CC(=O)O)NC1=O [UPAR-202, Hex-Ser-Leu-[Cys-Asp-Gln-Phe-Phe-Pro-Ala-Ile-Leu-Cys]-NH2] (Hexanoyl-SLCDQFFPAILC-NH2; disulfide 3-12) | < 1.58 | ≤ 10 |
| CCCCC(=O)N[C@H]1CSSC[C@@H](C(N)=O)NC(=O)[C@H](CCC)NC(=O)[C@H](Cc2ccc(Cl)cc2)NC(=O)[C@@H]2C[C@@H](O)CN2C(=O)[C@@H]2CCCN2C(=O)[C@H](Cc2ccccc2)NC(=O)[C@H](Cc2ccc(O)cc2)NC(=O)[C@H](CCC(N)=O)NC(=O)[C@H](CCCNC(=N)N)NC1=O [UPAR-204, Pent-[Cys-Arg-Gln-Tyr-Phe-Pro-Hyp-Pcf-Nva-Cys]-NH2] (Pentanoyl-CRQYFP[Hyp][Phe(4-Cl)][Nva]C-NH2; disulfide 1-10) | < 1.58 | ≤ 10 |
| CCCCC(=O)N[C@H]1CSSC[C@@H](C(=O)NCC(N)=O)NC(=O)[C@H](CCC)NC(=O)[C@H]([C@@H](C)CC)NC(=O)[C@@H]2C[C@@H](O)CN2C(=O)[C@@H]2CCCN2C(=O)[C@H](Cc2ccccc2)NC(=O)[C@H](Cc2ccc(O)cc2)NC(=O)[C@H](CCC(N)=O)NC(=O)[C@H](CCCNC(N)=O)NC1=O [UPAR-206, Pent-[Cys-Cit-Gln-Tyr-Phe-Pro-Hyp-Ile-Nva-Cys]-Gly-NH2] (Pentanoyl-C[Cit]QYFP[Hyp]I[Nva]CG-NH2; disulfide 1-10) | 1.58 to 10 | 12.6 to 31.6 |

Further lines, results first:

| Kd [1] [nM] | IC50 [2] [nM] | SMILES |
| --- | --- | --- |
| 10 to 100 | ≥ 126 | CCCCC(=O)N[C@H]1CSSC[C@@H](C(N)=O)NC(=O)[C@H](CCC)NC(=O)[C@H]([C@@H](C)CC)NC(=O)[C@@H]2C[C@@H](O)CN2C(=O)[C@@H]2CCCN2C(=O)[C@H](c2ccccc2)NC(=O)[C@H](Cc2ccc(O)cc2)NC(=O)[C@H](CCC(N)=O)NC(=O)[C@H](CCCNC(=N)N)NC1=O [UPAR-203, Pent-[Cys-Arg-Gln-Tyr-Phg-Pro-Hyp-Ile-Nva-Cys]-NH2] (Pentanoyl-CRQY[Phg]P[Hyp]I[Nva]C-NH2; disulfide 1-10) |
| > 100 | ≥ 126 | CCCCC(=O)N[C@@H](C)C(=O)N[C@@H](CCCNC(N)=O)C(=O)N[C@@H](CCC(N)=O)C(=O)N[C@@H](Cc1ccc(O)cc1)C(=O)N[C@@H](Cc1ccccc1)C(=O)N1CCC[C@H]1C(=O)N1C[C@H](O)C[C@H]1C(=O)N[C@H](C(=O)N[C@@H](CCC)C(=O)N[C@@H](CSC)C(N)=O)[C@@H](C)CC [UPAR-205, Pent-Ala-Cit-Gln-Tyr-Phe-Pro-Hyp-Ile-Nva-Smc-NH2] (Pentanoyl-A[Cit]QYFP[Hyp]I[Nva]C(Me)-NH2) |
| 1.58 to 10 | ≤ 10 | CCCCC(=O)N[C@H]1CSSC[C@@H](C(N)=O)NC(=O)[C@H](CCC)NC(=O)[C@H]([C@@H](C)CC)NC(=O)[C@@H]2C[C@@H](F)CN2C(=O)[C@@H]2CCCN2C(=O)[C@H](Cc2cccnc2)NC(=O)[C@H](Cc2ccc(O)cc2)NC(=O)[C@H](CCCCNC(=O)CN2CCN(CC(=O)O)CCN(CC(=O)O)CCN(CC(=O)O)CC2)NC(=O)[C@H](CCCNC(N)=O)NC1=O [UPAR-207, Pent-[Cys-Cit-Lys(DOTA)-Tyr-Mpa-Pro-4Tfp-Ile-Nva-Cys]-NH2] (Pentanoyl-C[Cit]K(DOTA)Y[3Pal]P[Pro(trans-4-F)]I[Nva]C-NH2; disulfide 1-10) |
